According to patent US12324830B2 (priority 2018, dated 2025):
Numbered stars: 1 amine (or outer) side, 2 acyl side, 3 side chain; on linkers, the order of the positions; unused ones are H or OH. Bridge positions count the residues as written; N and C are the ends. Square brackets hold non-standard residues; d marks the D form. Peptide text beside a SMILES is read from it. * marks the point of attachment. hTyr(3S-OH,4S-OH,3'-OSO3H) = N[C@H](C(=O)O)[C@H](O)[C@@H](O)c1ccc(O)c(OS(=O)(=O)O)c1; Orn(4R-OH,5R-OH) = O=C([C@H](C[C@@H](O)[C@@H](O)N[*:3])N[*:1])[*:2]; Pro(3S-OH,4S-Me) = C[C@H]1CN[C@H](C(=O)O)[C@H]1O; X1 = CCCCCOc1ccc(-c2cc(-c3ccc(C(=O)*)cc3)no2)cc1; Gln(3R-OH) = NC(=O)C[C@@H](O)[C@H](N)C(=O)O; Hyp = O=C(O)[C@@H]1C[C@@H](O)CN1

Tested on: C. auris
Design: species or system mice
Settings: mouse, in vivo

SMILES: CCCCCOc1ccc(-c2cc(-c3ccc(C(=O)N[C@H]4C[C@@H](O)[C@@H](O)NC(=O)[C@@H]5[C@@H](O)[C@@H](C)CN5C(=O)[C@H]([C@H](O)CC(N)=O)NC(=O)[C@H]([C@H](O)[C@@H](O)c5ccc(O)c(OS(=O)(=O)O)c5)NC(=O)[C@@H]5C[C@@H](O)CN5C(=O)[C@H]([C@@H](C)O)NC4=O)cc3)no2)cc1 [micafungin] (X1-[Orn(4R-OH,5R-OH)]T[Hyp][hTyr(3S-OH,4S-OH,3'-OSO3H)][Gln(3R-OH)][Pro(3S-OH,4S-Me)]; lactam 1-C)
- survival: 20%
